Measurements as given in US20040241154A1, “Secretin for the treatment of asthma” (priority 2001, published 2004).

What was measured:
[1] = system: epithelial cells derived from the human tertiary bronchus; assay: Short circuit current in cultured tertiary bronchial epithelial cell monolayers in modified Ussing chamber; assay type: cell-based
Description: Functional effects of the secretin receptor were probed in epithelial cells derived from the human tertiary bronchus. In brief, tertiary bronchial epithelial were isolated by overnight protease digestion and then cultured until confluency on Snapwell (Costar) permeable supports. The supports were mounted in a modified Ussing chamber, and both luminal and basolateral membranes were bathed in oxygenated Krebs extracellular solution. The cells were voltage clamped to zero to allow changes in short circuit current in response to secretin to be measured. As previously described, 10 μM amiloride was initially added to the luminal membrane (FIG. 4, point a) followed by the addition of 100 nM secretin to the luminal membrane (FIG. 4, point b).

tertiary bronchial rings = assay: Relaxation of carbachol precontracted human tertiary bronchial rings in organ bath
Method: The bronchorelaxant properties of secretin was examined in vitro, in the tertiary bronchus of non-diseased tissue. […] Tissues were precontracted with carbachol at the concentration being that which caused a contraction approximately 60-70% of the maximum, and a cumulative concentration-effect contractile curve (CEC) to secretin (0.01 μM to 3 μM) was constructed on each preparation.

[2] = system: primary human, tertiary bronchial epithelial cells; assay: Cl- efflux from primary human tertiary bronchial epithelial cells (MQAE fluorescence); assay type: cell-based
Method: Ionic movement in tertiary bronchial epithelial cells was further characterised with the use of the Cl^− specific fluorescent probe MQAE (n-(ethoxycarbonylmethyl)-6-methoxyquinolinium bromide; Molecular Probes). In brief, primary human, tertiary bronchial epithelial cells were isolated as described above and cultured in a 96 well plate. On reaching confluency, cells were loaded overnight with 4 mM MQAE. Cells were washed in a chloride containing HEPES buffer, before passive Cl^− efflux was initiated by the addition of a Cl^− free buffer.
The experiment of example 3a above was repeated using a range of secretin concentrations from 1 to 1000 nM.

human tertiary bronchus = assay: Short circuit current across human tertiary bronchus wall in modified Ussing chamber
[3] = 10 μM ATP or UTP added to apical membrane of the lung epithelium

Question: How did the “suppression of secretin mediated ionic movement” value ([1]; 500 μM glibenclamide after 100 nM secretin) turn out when `COc1ccc(Cl)cc1C(=O)NCCc1ccc(S(=O)(=O)NC(=O)NC2CCCCC2)cc1` [glibenclamide] was run?
Answer: failed to suppress secretin mediated ionic movement

Question: For `CC(C)C[C@H](NC(=O)CNC(=O)[C@H](CCC(N)=O)NC(=O)[C@H](CC(C)C)NC(=O)[C@H](CC(C)C)NC(=O)[C@H](CCCNC(=N)N)NC(=O)[C@H](CCC(N)=O)NC(=O)[C@H](CC(C)C)NC(=O)[C@H](CCCNC(=N)N)NC(=O)[C@H](C)NC(=O)CNC(=O)[C@H](CCC(=O)O)NC(=O)[C@H](CCCNC(=N)N)NC(=O)[C@H](CC(C)C)NC(=O)[C@H](CCCNC(=N)N)NC(=O)[C@H](CO)NC(=O)[C@H](CC(C)C)NC(=O)[C@H](CCC(=O)O)NC(=O)[C@H](CO)NC(=O)[C@@H](NC(=O)[C@H](Cc1ccccc1)NC(=O)[C@@H](NC(=O)CNC(=O)[C@H](CC(=O)O)NC(=O)[C@H](CO)NC(=O)[C@@H](N)Cc1c[nH]cn1)[C@@H](C)O)[C@@H](C)O)C(=O)N[C@H](C(N)=O)C(C)C` [secretin], which “mean pEC50, relaxation” value (tertiary bronchial rings; carbachol precontracted tertiary bronchial rings) is on record?
Answer: 6.8±0.2

Question: And the “relaxations of the carbachol-evoked tone” value (tertiary bronchial rings; secretin 0.01 μM to 3 μM, in 7 of the 8 preparations tested)?
Answer: concentration-dependent relaxations

Question: And the “mean relaxation as % of the relaxation observed to isoprenaline (1 μM)” value (tertiary bronchial rings; secretin 3 μM, n=7 preparations from 4 donors)?
Answer: 37±11%

Question: And the “Cl- efflux (changes in MQAE fluorescence)” value ([2]; 12.5 nM secretin)?
Answer: stimulated Cl^− efflux

Question: What about the “Cl- efflux (changes in MQAE fluorescence)” value ([2]; 100 nM secretin) of the same compound?
Answer: stimulated Cl^− efflux

Question: What about the “Maximal secretin stimulated Cl- efflux” value ([2]; compared with Prostaglandin E2 (10 μM), secretin 1 to 1000 nM) of the same compound?
Answer: of a similar magnitude to that observed to Prostaglandin E2

Question: What about the “Log EC50 (M), Cl- efflux” value ([2]; printed as negative Log EC50, mean ± s.e.mean, 2 to 6 independent experiments, cells from 6 donors, normalised to PGE2) of the same compound?
Answer: -7.64±0.24 M

Question: And the “ionic movement (short circuit current)” value (human tertiary bronchus; 3 μM human secretin added to luminal membrane after 10 μM amiloride, non-asthma donors)?
Answer: stimulate ionic movement in a manner consistent with the movement of a negatively charged ion

Question: What about the “ionic movement (short circuit current)” value ([1]; 100 nM secretin added to luminal membrane after 10 μM amiloride) of the same compound?
Answer: stimulated ionic movement in a manner consistent with the movement of a negatively charged ion

Question: For `O=C(O)c1cc([N+](=O)[O-])ccc1NCCCc1ccccc1` [NPPB, 5-nitro-2-(3-phenylpropyl-amino)benzoic acid], which “effect on 100 nM secretin mediated changes in fluorescence” value ([2]; 100 μM NPPB) is on record?
Answer: abolished

Question: How did the “ionic movement (short circuit current)” value (human tertiary bronchus; [3]) turn out when `O=c1ccn([C@@H]2O[C@H](COP(=O)(O)OP(=O)(O)OP(=O)(O)O)[C@@H](O)[C@H]2O)c(=O)[nH]1` [UTP] was run?
Answer: stimulate a similar ionic movement of similar magnitude

Question: With `Nc1ncnc2c1ncn2[C@@H]1O[C@H](COP(=O)(O)OP(=O)(O)OP(=O)(O)O)[C@@H](O)[C@H]1O` [ATP] as the compound, how does the “ionic movement (short circuit current)” value (human tertiary bronchus; [3]) read?
Answer: stimulate a similar ionic movement of similar magnitude
